According to article PMC7382147, “An effective UFLC–MS/MS method used to study pharmacokinetics of major constituents of Fukeqianjin formula in rat plasma” (Chinese Medicine, 2020):

Experiment: Pharmacokinetic study in rat plasma after oral administration of FKQJF extract (UFLC–MS/MS)
Format: in vivo, Sprague-Dawley (SD) rats
Conditions: Sprague-Dawley, oral FKQJF extract, single dose 3.2 g/kg, mean ± SD
Procedure: (§1) Aliquots of 100 μL plasma samples were mixed with 10 μL I.S. samples (1 μg/mL, in MeOH), then added with 500 μL ACN, respectively, and vortexed for 5 min, centrifugated at 10,000 rpm for 10 min, the supernatants were transferred into clean vials and dried in a vacuum centrifugal concentrator at 1200 rpm, 37 °C. After that, 100 μL ACN was added and ultrasonic (frequency 40 kHz, power 250 W) extracted for 5 min to dissolve the dry residue, vortexed for 1 min and centrifugated at 10,000 rpm for 5 min, 1 μL of each final supernatant was injected into UFLC–MS/MS for analysis.
An 8050 UFLC–MS/MS system equipped with LC-30A binary pump, a SIL-30AC autosampler, a SPD-M30A PDA detector, a CTO-20AC column oven, and a 8050 triple quadrupole mass spectrometer with an electrospray ionization source (ESI) was applied to detect and quantify FKQJF compounds in plasma samples. Data were acquired and processed with the software LabSolution (Ver. 5.6).
A Kinetex XB-C18 HPLC column (100 × 2.1 mm, 2.6 μm) linked with an equivalent guard column was used for chromatographic separation. The aqueous phase contained 0.2% formic acid was used as mobile phase A, and organic phase ACN as mobile phase B. The gradient elution method using in this program was: 3–5 min, 28–31% B; 5–7 min, 31–34% B; 7–9 min, 34–65% B; 9–10 min, 65–95% B; 10–11.5 min, 95% B. The flow rate of mobile phase, column temperature and autosampler temperature was 0.4 mL/min, 30 °C and 4 °C, respectively. The injection volume of each sample was set as 1 μL. The main MS spectrum parameters were set as follows: the flow rate of drying gas (N2) was 10.0 L/min; the atomized gas was 3.0 L/min and the heating gas flow rate was 10.0 L/min. The main temperatures of interface, desolvation and heat block was 300 °C, 250 °C and 400 °C, respectively. And, the interface and detector voltage were 3 kV and 1.8 kV.
Rats were divided into a blank group and a FKQJF administration group (6 rats for each), and fasted for 24 h. Each rat of the administration group was given FKQJF extract suspension at a single dose of 3.2 g FKQJF/kg body weight through oral administration in parallel. Blood samples (0.25 mL) were gathered from the orbital venous plexus of each rat, with FKQJF group gathered at 14 serial timepoints (6 rats for each) as 0.083 h, 0.16 h, 0.33 h, 0.5 h, 0.75 h, 1.0 h, 1.5 h, 2 h, 3 h, 4 h, 6 h, 8 h, 12 h and 24 h after drug administration. The blood samples were centrifugated at 6000g for 10 min to isolate plasma and stored at − 20 °C for further analysis.
Data were analyzed using the Drug and Statistics (DAS) Software version 2.0 (DAS 2.0, Mathematical Pharmacology Professional Committee of China, Shanghai, China). The non-compartmental mode was applied to obtain the following PK parameters: area under the plasma concentration–time curve from time zero to the time of last quantifiable concentration (AUC0→t) and area under the plasma concentration–time curve to time infinity (AUC0→∞), the elimination half-life (t1/2), mean retention time to last sampling time (MRT0→t) and mean retention time to infinity (MRT0→∞). The maximum plasma concentration (Cmax) and the time to maximum concentration (Tmax) were observed directly from the concentration–time (C–T) curves and measured data. All data are presented as mean ± SD.

AUC(0-inf) | AUC(0-t) | Cmax | half-life | SMILES
115 ± 15.8 ng·h/mL | 109 ± 11.4 ng·h/mL | 48 ± 4.41 ng/mL | 1.79 ± 0.44 h | COc1cc(O[C@@H]2O[C@H](CO)[C@@H](O)[C@H](O)[C@H]2O)cc(OC)c1OC [Analyte 1, 3,4,5-trimethoxyphenol-1-O-β-D-glucopyranoside]
3110 ± 38.7 ng·h/mL | 2970 ± 169 ng·h/mL | 477 ± 33.3 ng/mL | 5.27 ± 2.94 h | COC(=O)c1ccc(O)cn1 [Analyte 2, 5-hydroxypicolinic acid methyl ester]
489 ± 37.6 ng·h/mL | 463 ± 29.5 ng·h/mL | 102 ± 18.4 ng/mL | 2.66 ± 0.69 h | O=Cc1ccc2n1C[C@]1(C[C@H](O)[C@@H](CO)O1)OC2 [Analyte 3, acortatarin A]
92.6 ± 21.4 ng·h/mL | 80.5 ± 9.64 ng·h/mL | 46.8 ± 6.78 ng/mL | 2.2 ± 1.24 h | O=Cc1ccc2n1C[C@@]1(C[C@H](O)[C@@H](CO)O1)OC2 [Analyte 4, 9-epi-acortatarin A]

Same assay, conditions: Sprague-Dawley, oral FKQJF extract, single dose 3.2 g/kg, mean ± SD, read-out: MRT0→t

MRT last | SMILES
2.6 ± 0.12 h | COc1cc(O[C@@H]2O[C@H](CO)[C@@H](O)[C@H](O)[C@H]2O)cc(OC)c1OC [Analyte 1, 3,4,5-trimethoxyphenol-1-O-β-D-glucopyranoside]
6.51 ± 0.66 h | COC(=O)c1ccc(O)cn1 [Analyte 2, 5-hydroxypicolinic acid methyl ester]
3.67 ± 0.14 h | O=Cc1ccc2n1C[C@]1(C[C@H](O)[C@@H](CO)O1)OC2 [Analyte 3, acortatarin A]
2.38 ± 0.24 h | O=Cc1ccc2n1C[C@@]1(C[C@H](O)[C@@H](CO)O1)OC2 [Analyte 4, 9-epi-acortatarin A]

Same assay, conditions: Sprague-Dawley, oral FKQJF extract, single dose 3.2 g/kg, mean ± SD, read-out: MRT0→∞

MRT inf | SMILES
3.37 ± 0.26 h | COc1cc(O[C@@H]2O[C@H](CO)[C@@H](O)[C@H](O)[C@H]2O)cc(OC)c1OC [Analyte 1, 3,4,5-trimethoxyphenol-1-O-β-D-glucopyranoside]
8.09 ± 1.32 h | COC(=O)c1ccc(O)cn1 [Analyte 2, 5-hydroxypicolinic acid methyl ester]
4.32 ± 0.47 h | O=Cc1ccc2n1C[C@]1(C[C@H](O)[C@@H](CO)O1)OC2 [Analyte 3, acortatarin A]
3.25 ± 0.41 h | O=Cc1ccc2n1C[C@@]1(C[C@H](O)[C@@H](CO)O1)OC2 [Analyte 4, 9-epi-acortatarin A]

Same assay, conditions: Sprague-Dawley, oral FKQJF extract, single dose 3.2 g/kg, mean ± SD, read-out: Tmax

Tmax | SMILES
2 h | COc1cc(O[C@@H]2O[C@H](CO)[C@@H](O)[C@H](O)[C@H]2O)cc(OC)c1OC [Analyte 1, 3,4,5-trimethoxyphenol-1-O-β-D-glucopyranoside]
2.17 ± 0.76 h | COC(=O)c1ccc(O)cn1 [Analyte 2, 5-hydroxypicolinic acid methyl ester]
2.33 ± 0.58 h | O=Cc1ccc2n1C[C@]1(C[C@H](O)[C@@H](CO)O1)OC2 [Analyte 3, acortatarin A]
1 ± 0.5 h | O=Cc1ccc2n1C[C@@]1(C[C@H](O)[C@@H](CO)O1)OC2 [Analyte 4, 9-epi-acortatarin A]

Same assay, conditions: oral FKQJF extract 3.2 g/kg

shape of the plasma concentration–time curve | SMILES
double-peaks | COc1cc(O[C@@H]2O[C@H](CO)[C@@H](O)[C@H](O)[C@H]2O)cc(OC)c1OC [Analyte 1, 3,4,5-trimethoxyphenol-1-O-β-D-glucopyranoside]

Experiment: Ordinary stability of QC samples (room temperature for 8 h)
Format: physicochemical, rat
Conditions: plasma QC, spiked 50 ng/mL, room temperature 8 h
Procedure: as §1
(§2) Six replicates of low, medium and high concentrations of quality control (QC) samples were used to verify the stabilities under different conditions including: place at room temperature for 8 h, freeze (− 20 °C) and thaw for three times, and store at − 20 °C for 20 days.

Ordinary stability Mean | SMILES
80.92% | COc1cc(O[C@@H]2O[C@H](CO)[C@@H](O)[C@H](O)[C@H]2O)cc(OC)c1OC [Analyte 1, 3,4,5-trimethoxyphenol-1-O-β-D-glucopyranoside]
106.33% | COC(=O)c1ccc(O)cn1 [Analyte 2, 5-hydroxypicolinic acid methyl ester]
93.52% | O=Cc1ccc2n1C[C@]1(C[C@H](O)[C@@H](CO)O1)OC2 [Analyte 3, acortatarin A]
108.94% | O=Cc1ccc2n1C[C@@]1(C[C@H](O)[C@@H](CO)O1)OC2 [Analyte 4, 9-epi-acortatarin A]

Same assay, conditions: plasma QC, spiked 250 ng/mL, room temperature 8 h

Ordinary stability Mean | SMILES
104.48% | COc1cc(O[C@@H]2O[C@H](CO)[C@@H](O)[C@H](O)[C@H]2O)cc(OC)c1OC [Analyte 1, 3,4,5-trimethoxyphenol-1-O-β-D-glucopyranoside]
86.35% | COC(=O)c1ccc(O)cn1 [Analyte 2, 5-hydroxypicolinic acid methyl ester]
84.19% | O=Cc1ccc2n1C[C@]1(C[C@H](O)[C@@H](CO)O1)OC2 [Analyte 3, acortatarin A]
116.00% | O=Cc1ccc2n1C[C@@]1(C[C@H](O)[C@@H](CO)O1)OC2 [Analyte 4, 9-epi-acortatarin A]

Same assay, conditions: plasma QC, spiked 500 ng/mL, room temperature 8 h

Ordinary stability Mean | SMILES
117.94% | COc1cc(O[C@@H]2O[C@H](CO)[C@@H](O)[C@H](O)[C@H]2O)cc(OC)c1OC [Analyte 1, 3,4,5-trimethoxyphenol-1-O-β-D-glucopyranoside]
95.34% | COC(=O)c1ccc(O)cn1 [Analyte 2, 5-hydroxypicolinic acid methyl ester]
109.98% | O=Cc1ccc2n1C[C@]1(C[C@H](O)[C@@H](CO)O1)OC2 [Analyte 3, acortatarin A]
84.20% | O=Cc1ccc2n1C[C@@]1(C[C@H](O)[C@@H](CO)O1)OC2 [Analyte 4, 9-epi-acortatarin A]

Experiment: Freeze–thaw stability of QC samples (−20 °C, three times)
Format: physicochemical, rat
Conditions: plasma QC, spiked 50 ng/mL, freeze (−20 °C) and thaw three times
Procedure: as §1, §2

Freeze–thaw stability Mean | SMILES
112.34% | COc1cc(O[C@@H]2O[C@H](CO)[C@@H](O)[C@H](O)[C@H]2O)cc(OC)c1OC [Analyte 1, 3,4,5-trimethoxyphenol-1-O-β-D-glucopyranoside]
98.92% | COC(=O)c1ccc(O)cn1 [Analyte 2, 5-hydroxypicolinic acid methyl ester]
84.84% | O=Cc1ccc2n1C[C@]1(C[C@H](O)[C@@H](CO)O1)OC2 [Analyte 3, acortatarin A]
91.90% | O=Cc1ccc2n1C[C@@]1(C[C@H](O)[C@@H](CO)O1)OC2 [Analyte 4, 9-epi-acortatarin A]

Same assay, conditions: plasma QC, spiked 250 ng/mL, freeze (−20 °C) and thaw three times

Freeze–thaw stability Mean | SMILES
99.57% | COc1cc(O[C@@H]2O[C@H](CO)[C@@H](O)[C@H](O)[C@H]2O)cc(OC)c1OC [Analyte 1, 3,4,5-trimethoxyphenol-1-O-β-D-glucopyranoside]
99.07% | COC(=O)c1ccc(O)cn1 [Analyte 2, 5-hydroxypicolinic acid methyl ester]
92.61% | O=Cc1ccc2n1C[C@]1(C[C@H](O)[C@@H](CO)O1)OC2 [Analyte 3, acortatarin A]
107.25% | O=Cc1ccc2n1C[C@@]1(C[C@H](O)[C@@H](CO)O1)OC2 [Analyte 4, 9-epi-acortatarin A]

Same assay, conditions: plasma QC, spiked 500 ng/mL, freeze (−20 °C) and thaw three times

Freeze–thaw stability Mean | SMILES
106.56% | COc1cc(O[C@@H]2O[C@H](CO)[C@@H](O)[C@H](O)[C@H]2O)cc(OC)c1OC [Analyte 1, 3,4,5-trimethoxyphenol-1-O-β-D-glucopyranoside]
86.48% | COC(=O)c1ccc(O)cn1 [Analyte 2, 5-hydroxypicolinic acid methyl ester]
90.89% | O=Cc1ccc2n1C[C@]1(C[C@H](O)[C@@H](CO)O1)OC2 [Analyte 3, acortatarin A]
102.81% | O=Cc1ccc2n1C[C@@]1(C[C@H](O)[C@@H](CO)O1)OC2 [Analyte 4, 9-epi-acortatarin A]

Experiment: Long-term stability of QC samples (−20 °C for 20 days)
Format: physicochemical, rat
Conditions: plasma QC, spiked 50 ng/mL
Procedure: as §1, §2

Long-term stability Mean | SMILES
86.86% | COc1cc(O[C@@H]2O[C@H](CO)[C@@H](O)[C@H](O)[C@H]2O)cc(OC)c1OC [Analyte 1, 3,4,5-trimethoxyphenol-1-O-β-D-glucopyranoside]
87.08% | COC(=O)c1ccc(O)cn1 [Analyte 2, 5-hydroxypicolinic acid methyl ester]
81.68% | O=Cc1ccc2n1C[C@]1(C[C@H](O)[C@@H](CO)O1)OC2 [Analyte 3, acortatarin A]
118.34% | O=Cc1ccc2n1C[C@@]1(C[C@H](O)[C@@H](CO)O1)OC2 [Analyte 4, 9-epi-acortatarin A]

Same assay, conditions: plasma QC, spiked 250 ng/mL

Long-term stability Mean | SMILES
89.00% | COc1cc(O[C@@H]2O[C@H](CO)[C@@H](O)[C@H](O)[C@H]2O)cc(OC)c1OC [Analyte 1, 3,4,5-trimethoxyphenol-1-O-β-D-glucopyranoside]
83.50% | COC(=O)c1ccc(O)cn1 [Analyte 2, 5-hydroxypicolinic acid methyl ester]
86.77% | O=Cc1ccc2n1C[C@]1(C[C@H](O)[C@@H](CO)O1)OC2 [Analyte 3, acortatarin A]
81.20% | O=Cc1ccc2n1C[C@@]1(C[C@H](O)[C@@H](CO)O1)OC2 [Analyte 4, 9-epi-acortatarin A]

Same assay, conditions: plasma QC, spiked 500 ng/mL

Long-term stability Mean | SMILES
103.76% | COc1cc(O[C@@H]2O[C@H](CO)[C@@H](O)[C@H](O)[C@H]2O)cc(OC)c1OC [Analyte 1, 3,4,5-trimethoxyphenol-1-O-β-D-glucopyranoside]
112.17% | COC(=O)c1ccc(O)cn1 [Analyte 2, 5-hydroxypicolinic acid methyl ester]
93.19% | O=Cc1ccc2n1C[C@]1(C[C@H](O)[C@@H](CO)O1)OC2 [Analyte 3, acortatarin A]
104.85% | O=Cc1ccc2n1C[C@@]1(C[C@H](O)[C@@H](CO)O1)OC2 [Analyte 4, 9-epi-acortatarin A]
